Legend:
Format in all cases: in vivo
[1] = tested on: redroot pigweed (Amaranthus retroflexus, AMARE); experiment: Pre-emerge test, greenhouse herbicide activity screening; details: for Pre-emerge Herbicidal Activity, phytotoxicity rating (0-100), AMARE: rated 14 days after application, 0 = no damage, 100 = complete death; for Pre-emerge Herbicidal Activity AMARE: phytotoxicity rating 0-100, 14 days after application
How it was run: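 Compounds in acetone were track-sprayed at 15-1000 g ai/ha (187 l/ha) on sandy loam pots: pre-emerge one day after seeding, post-emerge at 2-3 leaf stage with 0.25% v/v non-ionic surfactant. Phytotoxicity was rated 14 days later on a 0 (no damage) to 100 (complete death) scale.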

[2] = tested on: barnyardgrass (Echinochloa crus-galli, ECHCG); experiment: as above; details: for Pre-emerge Herbicidal Activity, phytotoxicity rating (0-100), ECHCG: rated 14 days after application, 0 = no damage, 100 = complete death; for Pre-emerge Herbicidal Activity ECHCG: phytotoxicity rating 0-100, 14 days after application
How it was run: (§1)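 Applied at 15–1000 g ai/ha from acetone in 187 l/ha spray volume. Post-emergence applications included 0.25% v/v non-ionic surfactant and reached plants sown 8–21 days before. Pre-emergence applications were incorporated by surface watering. Efficacy or crop damage was rated on a 0–100 scale after 14 days.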

[3] = tested on: green foxtail (Setaria viridis, SETVI); experiment: as above; details: for Pre-emerge Herbicidal Activity, phytotoxicity rating (0-100), SETVI: rated 14 days after application, 0 = no damage, 100 = complete death; for Pre-emerge Herbicidal Activity SETVI: phytotoxicity rating 0-100, 14 days after application
How it was run: as §1

[4] = tested on: ivyleaf morningglory (Ipomoea hederacea, IPOHE); experiment: as above; details: for Pre-emerge Herbicidal Activity, phytotoxicity rating (0-100), IPOHE: rated 14 days after application, 0 = no damage, 100 = complete death; for Pre-emerge Herbicidal Activity IPOHE: phytotoxicity rating 0-100, 14 days after application
How it was run: as §1

[5] = tested on: johnsongrass (Sorghum halepense, SORHA); experiment: as above; details: for Pre-emerge Herbicidal Activity, phytotoxicity rating (0-100), SORHA: rated 14 days after application, 0 = no damage, 100 = complete death; for Pre-emerge Herbicidal Activity SORHA: phytotoxicity rating 0-100, 14 days after application
How it was run: as §1

[6] = tested on: lambsquarters (Chenopodium album, CHEAL); experiment: as above; details: for Pre-emerge Herbicidal Activity, phytotoxicity rating (0-100), CHEAL: rated 14 days after application, 0 = no damage, 100 = complete death; for Pre-emerge Herbicidal Activity CHEAL: phytotoxicity rating 0-100, 14 days after application
How it was run: as §1

[7] = tested on: large crabgrass (Digitaria sanguinalis, DIGSA); experiment: as above; details: for Pre-emerge Herbicidal Activity, phytotoxicity rating (0-100), DIGSA: rated 14 days after application, 0 = no damage, 100 = complete death; for Pre-emerge Herbicidal Activity DIGSA: phytotoxicity rating 0-100, 14 days after application
How it was run: as §1

[8] = tested on: sicklepod (Cassia obtusifolia, CASOB); experiment: as above; details: for Pre-emerge Herbicidal Activity, phytotoxicity rating (0-100), CASOB: rated 14 days after application, 0 = no damage, 100 = complete death; for Pre-emerge Herbicidal Activity CASOB: phytotoxicity rating 0-100, 14 days after application
How it was run: as §1

[9] = tested on: velvetleaf (Abutilon theophrasti, ABUTH); experiment: as above; details: for Pre-emerge Herbicidal Activity, phytotoxicity rating (0-100), ABUTH: rated 14 days after application, 0 = no damage, 100 = complete death; for Pre-emerge Herbicidal Activity ABUTH: phytotoxicity rating 0-100, 14 days after application
How it was run: as §1

[10] = tested on: field corn (Zea mays L., var. Dekalb 535, CORN); experiment: Pre-emerge test, crop safety; details: for Pre-emerge phytotoxicity rating (0-100), crop damage, CORN: rated 14 days after application, 0 = no damage, 100 = complete death; for Pre-emerge Herbicidal Activity CORN: crop damage rating 0-100, 14 days after application
How it was run: (§2)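 Sandy loam pots; pre-emerge: sown 1 d pre-spray, surface-watered after, then bottom-watered. Post-emerge: sown 8–21 d before, 2–3 leaf stage, + 0.25% v/v NIS, bottom-watered. Acetone, 187 l/ha track spray, 15–1000 g ai/ha. 0–100 injury score, day 14.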

[11] = tested on: upland rice (Oryza sp., var. Tebonnet, RICE); experiment: Pre-emerge test, crop safety; details: for Pre-emerge phytotoxicity rating (0-100), crop damage, RICE: rated 14 days after application, 0 = no damage, 100 = complete death; for Pre-emerge Herbicidal Activity RICE: crop damage rating 0-100, 14 days after application
How it was run: as §2

[12] = tested on: barnyardgrass (Echinochloa crus-galli, ECHCG); experiment: Post-emerge test, greenhouse herbicide activity screening; details: post-emerge, 14 days after application, rating scale 0-100
How it was run: as §2

[13] = tested on: green foxtail (Setaria viridis, SETVI); experiment: as above; details: post-emerge, 14 days after application, rating scale 0-100
How it was run: as §2

[14] = tested on: ivyleaf morningglory (Ipomoea hederacea, IPOHE); experiment: as above; details: post-emerge, 14 days after application, rating scale 0-100
How it was run: as §2

[15] = tested on: johnsongrass (Sorghum halepense, SORHA); experiment: as above; details: post-emerge, 14 days after application, rating scale 0-100
How it was run: as §2

[16] = tested on: lambsquarters (Chenopodium album, CHEAL); experiment: as above; details: post-emerge, 14 days after application, rating scale 0-100
How it was run: as §2

[17] = tested on: large crabgrass (Digitaria sanguinalis, DIGSA); experiment: as above; details: post-emerge, 14 days after application, rating scale 0-100
How it was run: as §2

[18] = tested on: redroot pigweed (Amaranthus retroflexus, AMARE); experiment: as above; details: post-emerge, 14 days after application
How it was run: as §2

[19] = tested on: sicklepod (Cassia obtusifolia, CASOB); experiment: as above; details: post-emerge, 14 days after application, rating scale 0-100
How it was run: as §2

[20] = tested on: velvetleaf (Abutilon theophrasti, ABUTH); experiment: as above; details: post-emerge, 14 days after application, rating scale 0-100
How it was run: as §2

[21] = tested on: field corn (Zea mays L., var. Dekalb 535, CORN); experiment: Post-emerge test, crop safety; details: post-emerge, 14 days after application, rating scale 0-100
How it was run: as §1

[22] = tested on: upland rice (Oryza sp., var. Tebonnet, RICE); experiment: Post-emerge test, crop safety; details: post-emerge, 14 days after application, rating scale 0-100
How it was run: as §1

[23] = 250 g ai/ha, rating scale 0-100

COc1c(Cl)cc(F)c(-n2c(=O)cc(C(F)(F)F)n(C)c2=O)c1NC(=O)C=Cc1ccccc1Cl [2-82]
20: Pre-emerge Herbicidal Activity, phytotoxicity rating (0-100), SORHA ([5]; 250 g ai/ha) | phytotoxicity rating ECHCG ([12]; 63 g ai/ha)
0: Pre-emerge Herbicidal Activity, phytotoxicity rating (0-100), ECHCG ([2]; 63 g ai/ha) | Pre-emerge Herbicidal Activity, phytotoxicity rating (0-100), ECHCG ([2]; 250 g ai/ha) | Pre-emerge Herbicidal Activity, phytotoxicity rating (0-100), IPOHE ([4]; 63 g ai/ha) | Pre-emerge Herbicidal Activity, phytotoxicity rating (0-100), IPOHE ([4]; 250 g ai/ha) | Pre-emerge Herbicidal Activity, phytotoxicity rating (0-100), SORHA ([5]; 63 g ai/ha) | Pre-emerge phytotoxicity rating (0-100), crop damage, CORN ([10]; 63 g ai/ha) | Pre-emerge phytotoxicity rating (0-100), crop damage, CORN ([10]; 250 g ai/ha) | phytotoxicity rating SORHA ([15]; 63 g ai/ha) | phytotoxicity rating DIGSA ([17]; 63 g ai/ha)
30: Pre-emerge Herbicidal Activity, phytotoxicity rating (0-100), DIGSA ([7]; 63 g ai/ha) | phytotoxicity rating ECHCG ([12]; 250 g ai/ha) | phytotoxicity rating SORHA ([15]; 250 g ai/ha) | phytotoxicity rating DIGSA ([17]; 250 g ai/ha)
60: phytotoxicity rating IPOHE ([14]; 63 g ai/ha)
100: Pre-emerge Herbicidal Activity, phytotoxicity rating (0-100), AMARE ([1]; 63 g ai/ha) | Pre-emerge Herbicidal Activity, phytotoxicity rating (0-100), AMARE ([1]; 250 g ai/ha) | Pre-emerge Herbicidal Activity, phytotoxicity rating (0-100), SETVI ([3]; 250 g ai/ha) | Pre-emerge Herbicidal Activity, phytotoxicity rating (0-100), CHEAL ([6]; 63 g ai/ha) | Pre-emerge Herbicidal Activity, phytotoxicity rating (0-100), CHEAL ([6]; 250 g ai/ha) | Pre-emerge Herbicidal Activity, phytotoxicity rating (0-100), CASOB ([8]; 250 g ai/ha) | Pre-emerge Herbicidal Activity, phytotoxicity rating (0-100), ABUTH ([9]; 63 g ai/ha) | Pre-emerge Herbicidal Activity, phytotoxicity rating (0-100), ABUTH ([9]; 250 g ai/ha) | phytotoxicity rating AMARE ([18]; 63 g ai/ha, rating scale 0-100) | phytotoxicity rating AMARE [18, 23] | phytotoxicity rating CASOB ([19]; 63 g ai/ha) | phytotoxicity rating CASOB ([19]; 250 g ai/ha) | phytotoxicity rating ABUTH ([20]; 63 g ai/ha) | phytotoxicity rating ABUTH ([20]; 250 g ai/ha)
10: Pre-emerge phytotoxicity rating (0-100), crop damage, RICE ([11]; 63 g ai/ha) | Pre-emerge phytotoxicity rating (0-100), crop damage, RICE ([11]; 250 g ai/ha) | phytotoxicity rating CORN ([21]; 63 g ai/ha)
50: phytotoxicity rating SETVI ([13]; 250 g ai/ha) | phytotoxicity rating RICE ([22]; 63 g ai/ha)
25: phytotoxicity rating CORN ([21]; 250 g ai/ha)
40: phytotoxicity rating SETVI ([13]; 63 g ai/ha) | phytotoxicity rating RICE ([22]; 250 g ai/ha)
90: phytotoxicity rating IPOHE ([14]; 250 g ai/ha) | phytotoxicity rating CHEAL ([16]; 63 g ai/ha) | phytotoxicity rating CHEAL ([16]; 250 g ai/ha)
80: Pre-emerge Herbicidal Activity, phytotoxicity rating (0-100), SETVI ([3]; 63 g ai/ha) | Pre-emerge Herbicidal Activity, phytotoxicity rating (0-100), DIGSA ([7]; 250 g ai/ha) | Pre-emerge Herbicidal Activity, phytotoxicity rating (0-100), CASOB ([8]; 63 g ai/ha)

COc1c(Cl)cc(F)c(-n2c(=O)cc(C(F)(F)F)n(C)c2=O)c1NC(=O)Oc1ccccc1C(C)(C)C [4-27]
40: phytotoxicity rating CASOB ([19]; 250 g ai/ha)
5: phytotoxicity rating CORN (crop damage) ([21]; 63 g ai/ha)
0: Pre-emerge Herbicidal Activity ECHCG ([2]; 63 g ai/ha) | Pre-emerge Herbicidal Activity ECHCG ([2]; 250 g ai/ha) | Pre-emerge Herbicidal Activity SORHA ([5]; 63 g ai/ha) | Pre-emerge Herbicidal Activity SORHA ([5]; 250 g ai/ha) | Pre-emerge Herbicidal Activity DIGSA ([7]; 63 g ai/ha) | Pre-emerge Herbicidal Activity DIGSA ([7]; 250 g ai/ha) | Pre-emerge Herbicidal Activity CASOB ([8]; 63 g ai/ha) | Pre-emerge Herbicidal Activity CORN ([10]; 63 g ai/ha) | Pre-emerge Herbicidal Activity CORN ([10]; 250 g ai/ha) | phytotoxicity rating ECHCG ([12]; 63 g ai/ha) | phytotoxicity rating ECHCG ([12]; 250 g ai/ha) | phytotoxicity rating SETVI ([13]; 63 g ai/ha) | phytotoxicity rating SORHA ([15]; 63 g ai/ha) | phytotoxicity rating SORHA ([15]; 250 g ai/ha) | phytotoxicity rating DIGSA ([17]; 63 g ai/ha) | phytotoxicity rating DIGSA ([17]; 250 g ai/ha) | phytotoxicity rating RICE (crop damage) ([22]; 63 g ai/ha)
30: Pre-emerge Herbicidal Activity SETVI ([3]; 63 g ai/ha) | Pre-emerge Herbicidal Activity CASOB ([8]; 250 g ai/ha)
80: Pre-emerge Herbicidal Activity CHEAL ([6]; 63 g ai/ha) | Pre-emerge Herbicidal Activity ABUTH ([9]; 63 g ai/ha) | phytotoxicity rating IPOHE ([14]; 250 g ai/ha) | phytotoxicity rating AMARE [18, 23]
60: phytotoxicity rating CHEAL ([16]; 63 g ai/ha) | phytotoxicity rating AMARE ([18]; 63 g ai/ha, rating scale 0-100 (0 no damage, 100 complete death))
20: Pre-emerge Herbicidal Activity IPOHE ([4]; 63 g ai/ha) | phytotoxicity rating CASOB ([19]; 63 g ai/ha)
10: Pre-emerge Herbicidal Activity RICE ([11]; 63 g ai/ha) | phytotoxicity rating SETVI ([13]; 250 g ai/ha) | phytotoxicity rating CORN (crop damage) ([21]; 250 g ai/ha) | phytotoxicity rating RICE (crop damage) ([22]; 250 g ai/ha)
70: Pre-emerge Herbicidal Activity AMARE ([1]; 63 g ai/ha) | phytotoxicity rating IPOHE ([14]; 63 g ai/ha) | phytotoxicity rating ABUTH ([20]; 63 g ai/ha)
50: Pre-emerge Herbicidal Activity SETVI ([3]; 250 g ai/ha) | Pre-emerge Herbicidal Activity IPOHE ([4]; 250 g ai/ha) | Pre-emerge Herbicidal Activity RICE ([11]; 250 g ai/ha)
100: Pre-emerge Herbicidal Activity AMARE ([1]; 250 g ai/ha) | Pre-emerge Herbicidal Activity CHEAL ([6]; 250 g ai/ha) | Pre-emerge Herbicidal Activity ABUTH ([9]; 250 g ai/ha) | phytotoxicity rating CHEAL ([16]; 250 g ai/ha) | phytotoxicity rating ABUTH ([20]; 250 g ai/ha)
